Data set [1] in a line: Solubility of biphenyltetracarboxylic acid isomers in water or an aqueous solvent. To be noted: order among the biphenyltetracarboxylic acid isomers; FIG. 2 in water at varying temperatures. In kind it is physicochemical. Here is the method: The solubility was measured by maintaining each of a mixture of 9.35 g of 2,3,3',4'-biphenyltetracarboxylic acid and 10 ml. of water and a mixture of 7.53 g of 3,4,3',4'-biphenyltetracarboxylic acid and 20 ml. of water at a predetermined temperature to dissolve each of the isomers in water, separating the insoluble matter by filtration, drying the filtrate, and weighing it, to thereby obtained the amount of each isomer dissolved at the specified temperature.

Data set [2] can be described thus: Solubility of biphenyltetracarboxylic dianhydride isomers in aliphatic acid anhydride or ketone. In kind it is physicochemical. The note with it: compared with the 3,4,3',4'-isomer; FIG. 1 in acetic anhydride at varying temperatures. The procedure: Referring to FIG. 1, the ordinate represents the solubility (g/acetic anhydride: 10 ml.) and the abscissa the temperature in °C. The measurement of the solubility was performed by maintaining separate mixtures of 2.5 g of the 2,3,3',4'-isomer and 5 ml. of acetic anhydride and a mixture of 1 g of the 3,4,3',4'-isomer and 20 ml. of acetic anhydride at a predetermined temperature to dissolve each of the isomers in the acetic anhydride, separating the insoluble matter by filtration, drying the filtrate and weighing it, to thereby obtain the amount of the isomer dissolved in […] at the specified temperature.

For `O=C(O)c1ccc(-c2cccc(C(=O)O)c2C(=O)O)cc1C(=O)O` [2,3,3',4'-biphenyltetracarboxylic acid], the “solubility in water or in an aqueous solvent” value in data set [1] is “followed by the 2,3,3',4'-isomer”.

`O=C(O)c1ccc(-c2ccc(C(=O)O)c(C(=O)O)c2)cc1C(=O)O` [3,4,3',4'-biphenyltetracarboxylic acid]: the “solubility in water or in an aqueous solvent” value in data set [1] was “the 3,4,3',4'-isomer in order of decreasing solubility”.

Consider `O=C(O)c1cccc(-c2cccc(C(=O)O)c2C(=O)O)c1C(=O)O` [2,3,2',3'-isomer, 2,3,2',3'-biphenyltetracarboxylic acid], for which, in data set [1], the “solubility in water or in an aqueous solvent” value is listed as “largest solubility in water or in an aqueous solvent”.

In the case of `O=C1OC(=O)c2cc(-c3cccc4c3C(=O)OC4=O)ccc21` [2,3,3',4'-biphenyltetracarboxylic dianhydride], the “solubility in an aliphatic acid anhydride or ketone” value in data set [2] is reported as “more soluble in an aliphatic acid anhydride or ketone than the 3,4,3',4'-isomer”.

The values above are taken from US3940426A, “Process for producing biphenyltetracarboxylic dianhydrides” (UBE Industries, Ltd., priority 1972, dated 1976).
